Results taken from ChEMBL document CHEMBL1146789, “(+/-)8-Amino-5,6,7,8-tetrahydroisoquinolines as novel antinociceptive agents” (Bioorg Med Chem Lett, 2004).
pKi: −log10 of the molar value. Activity calls are given as the source filed them. The calls are words filed in the database; no cut-off is given here.

How the values were obtained:
[1] = target: T1, Neuronal acetylcholine receptor; alpha4/beta2 (Homo sapiens, UniProt P17787+P43681); assay: Affinity for nicotinic acetylcholine receptor alpha4-beta2; NA = Not active; format: protein-complex assay
Mus musculus [2] = species: Mus musculus; assay: Antinociceptive action was determined; P- Possess activity; format: functional, organism-based
Mus musculus [3] = assay: Antinociceptive action was determined by tail-flick assay in mouse administered subcutaneously; format: functional; conditions: sc
Mus musculus [4] = assay: Antinociceptive action was determined by tail-flick assay in mouse administered intrathecally; format: functional; conditions: central
Mus musculus [5] = assay: Antinociceptive action was determined by hotplate assay in mouse administered subcutaneously; format: functional; conditions: sc
Mus musculus [6] = assay: Antinociceptive action was determined by tail-flick assay in mouse administered subcutaneously at a dose of 10 mg/kg; format: functional; conditions: route subcutaneous
[7] = target: T1, Neuronal acetylcholine receptor; alpha4/beta2; assay: Affinity for nicotinic acetylcholine receptor alpha4-beta2; format: protein-complex assay
Mus musculus [8] = assay: Antinociceptive action was determined by hotplate assay in mouse administered subcutaneously at a dose of 10 mg/kg; format: functional; conditions: route subcutaneous
[9] = target: Adrenergic receptor alpha-1 (Homo sapiens, UniProt P35348+P25100+P35368); assay: Affinity towards alpha-1 adrenergic receptor; format: protein assay
[10] = target: Muscarinic acetylcholine receptor M4 (Homo sapiens, UniProt P08173); assay: Affinity towards human Muscarinic acetylcholine receptor M4
[11] = target: Serotonin 3 (5-HT3) receptor; assay: Affinity towards human 5-hydroxytryptamine 3 serotonin receptor; format: protein-complex assay
Mu-type opioid receptor = Mu-type opioid receptor (Homo sapiens, UniProt P35372); assay: Affinity towards opioid receptor mu 1
[12] = target: 5-hydroxytryptamine receptor 1A (Homo sapiens, UniProt P08908); assay: Affinity towards human 5-hydroxytryptamine 1A serotonin receptor
[13] = Binding towards calcium channel(Ca++); NA- Not active
[14] = target: 5-hydroxytryptamine receptor 2B (Homo sapiens, UniProt P41595); assay: Affinity towards human 5-hydroxytryptamine 2B serotonin receptor
[15] = target: Kappa-type opioid receptor (Homo sapiens, UniProt P41145); assay: Affinity towards kappa opioid receptor
D(1B) dopamine receptor = D(1B) dopamine receptor (Homo sapiens, UniProt P21918); assay: Affinity towards human dopamine receptor D5
D(3) dopamine receptor = D(3) dopamine receptor (Homo sapiens, UniProt P35462); assay: Affinity towards human dopamine receptor D3
Histamine H2 receptor = Histamine H2 receptor (Homo sapiens, UniProt P25021); assay: Affinity towards histamine H2 receptor
Histamine H1 receptor = Histamine H1 receptor (Homo sapiens, UniProt P35367); assay: Affinity towards histamine H1 receptor
[16] = target: Delta-type opioid receptor (Homo sapiens, UniProt P41143); assay: Affinity towards opioid receptor delta 1
[17] = target: Muscarinic acetylcholine receptor M3 (Homo sapiens, UniProt P20309); assay: Affinity towards human muscarinic acetylcholine receptor M3
D(1A) dopamine receptor = D(1A) dopamine receptor (Homo sapiens, UniProt P21728); assay: Affinity towards human Dopamine receptor D1
[18] = target: Sodium-dependent dopamine transporter (Homo sapiens) (UniProt Q01959); assay: Binding towards dopamine transporter; NA- Not active
[19] = target: Adrenergic receptor alpha-2 (Homo sapiens, UniProt P08913+P18825+P18089); assay: Affinity towards alpha-2 adrenergic receptor; format: protein assay
[20] = target: Beta-2 adrenergic receptor (Homo sapiens, UniProt P07550); assay: Affinity towards human beta-2 adrenergic receptor
[21] = target: 5-hydroxytryptamine receptor 5A (Homo sapiens, UniProt P47898); assay: Affinity towards human 5-hydroxytryptamine 5A serotonin receptor
[22] = target: Muscarinic acetylcholine receptor M5 (Homo sapiens, UniProt P08912); assay: Affinity towards human Muscarinic acetylcholine receptor M5
Adenosine A2 receptor = Adenosine A2 receptor (Homo sapiens, UniProt P29275+P29274); assay: Affinity towards human adenosine A2 receptor; format: protein assay
[23] = target: 5-hydroxytryptamine receptor 6 (Homo sapiens, UniProt P50406); assay: Affinity towards human 5-hydroxytryptamine 6 serotonin receptor
[24] = Binding towards chloride channel(Cl-); NA = Not active
D(2) dopamine receptor = D(2) dopamine receptor (Homo sapiens, UniProt P14416); assay: Affinity towards human dopamine receptor D2
Translocator protein = Translocator protein (Homo sapiens, UniProt P30536); assay: Binding affinity for peripheral benzodiazepine receptor
[25] = target: Sodium-dependent noradrenaline transporter (Homo sapiens) (UniProt P23975); assay: Binding towards norepinephrine transporter; NA= Not active
[26] = target: A-type voltage-gated potassium channel KCND3 (Homo sapiens, UniProt Q9UK17); assay: Binding towards potassium channel(K+); NA = Not active
Adenosine receptor A1 = Adenosine receptor A1 (Homo sapiens, UniProt P30542); assay: Affinity towards human adenosine A1 receptor
[27] = target: 5-hydroxytryptamine receptor 7 (Homo sapiens, UniProt P34969); assay: Affinity towards human 5-hydroxytryptamine 7 serotonin receptor
[28] = target: Muscarinic acetylcholine receptor M2 (Homo sapiens, UniProt P08172); assay: Affinity towards human muscarinic acetylcholine receptor M2
[29] = Binding towards sodium channel(Na+); NA = Not active
D(4) dopamine receptor = D(4) dopamine receptor (Homo sapiens, UniProt P21917); assay: Affinity towards human dopamine receptor D4
[30] = target: 5-hydroxytryptamine receptor 2C (Homo sapiens, UniProt P28335); assay: Affinity towards human 5-hydroxytryptamine 2C serotonin receptor
[31] = target: GABA-A receptor; anion channel; assay: Binding affinity for GABA-A central benzodiazepine receptor; format: protein-complex assay
[32] = target: Muscarinic acetylcholine receptor M1 (Homo sapiens, UniProt P11229); assay: Affinity towards human muscarinic acetylcholine receptor M1
Adenosine receptor A3 = Adenosine receptor A3 (Homo sapiens, UniProt P0DMS8); assay: Affinity towards human adenosine A3 receptor
[33] = target: 5-hydroxytryptamine receptor 1B (Homo sapiens, UniProt P28222); assay: Affinity towards human 5-hydroxytryptamine 1B serotonin receptor
Mus musculus [34] = assay: Antinociceptive action was determined by tail-flick assay in mouse administered intrathecally at a dose of 20-25 ug; format: functional

T1 sequence (P17787 whole entry): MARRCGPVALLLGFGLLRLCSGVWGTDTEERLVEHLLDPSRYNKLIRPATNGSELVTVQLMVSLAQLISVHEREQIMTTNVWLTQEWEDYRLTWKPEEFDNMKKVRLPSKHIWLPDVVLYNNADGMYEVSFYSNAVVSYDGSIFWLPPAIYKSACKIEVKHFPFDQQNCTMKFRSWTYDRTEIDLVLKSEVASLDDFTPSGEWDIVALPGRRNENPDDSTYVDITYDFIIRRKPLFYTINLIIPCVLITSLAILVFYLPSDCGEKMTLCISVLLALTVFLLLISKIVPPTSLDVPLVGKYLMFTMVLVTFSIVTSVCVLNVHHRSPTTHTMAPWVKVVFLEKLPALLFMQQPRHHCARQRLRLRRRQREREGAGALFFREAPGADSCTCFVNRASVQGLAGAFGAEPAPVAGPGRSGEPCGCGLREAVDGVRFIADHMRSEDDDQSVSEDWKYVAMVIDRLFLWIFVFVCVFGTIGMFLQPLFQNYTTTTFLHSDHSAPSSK
T1 sequence (P43681 whole entry): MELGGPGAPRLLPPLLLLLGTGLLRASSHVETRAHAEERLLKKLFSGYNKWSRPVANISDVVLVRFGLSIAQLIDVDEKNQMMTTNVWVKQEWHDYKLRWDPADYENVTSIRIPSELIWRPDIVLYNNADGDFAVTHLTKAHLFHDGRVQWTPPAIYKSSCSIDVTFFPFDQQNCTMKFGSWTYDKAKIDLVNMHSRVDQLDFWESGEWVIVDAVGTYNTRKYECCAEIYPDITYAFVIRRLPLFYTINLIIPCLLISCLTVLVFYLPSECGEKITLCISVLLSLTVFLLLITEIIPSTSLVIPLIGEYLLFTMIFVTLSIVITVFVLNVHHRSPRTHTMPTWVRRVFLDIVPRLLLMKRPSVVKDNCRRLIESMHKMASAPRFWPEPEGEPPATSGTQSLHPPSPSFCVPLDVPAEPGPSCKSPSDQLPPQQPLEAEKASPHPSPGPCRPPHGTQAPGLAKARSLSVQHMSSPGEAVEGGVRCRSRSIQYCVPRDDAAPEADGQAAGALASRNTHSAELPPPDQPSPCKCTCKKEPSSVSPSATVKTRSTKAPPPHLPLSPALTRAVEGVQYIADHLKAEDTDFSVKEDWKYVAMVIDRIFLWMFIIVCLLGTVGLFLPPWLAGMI
Chain of D(4) dopamine receptor (P21917 whole entry): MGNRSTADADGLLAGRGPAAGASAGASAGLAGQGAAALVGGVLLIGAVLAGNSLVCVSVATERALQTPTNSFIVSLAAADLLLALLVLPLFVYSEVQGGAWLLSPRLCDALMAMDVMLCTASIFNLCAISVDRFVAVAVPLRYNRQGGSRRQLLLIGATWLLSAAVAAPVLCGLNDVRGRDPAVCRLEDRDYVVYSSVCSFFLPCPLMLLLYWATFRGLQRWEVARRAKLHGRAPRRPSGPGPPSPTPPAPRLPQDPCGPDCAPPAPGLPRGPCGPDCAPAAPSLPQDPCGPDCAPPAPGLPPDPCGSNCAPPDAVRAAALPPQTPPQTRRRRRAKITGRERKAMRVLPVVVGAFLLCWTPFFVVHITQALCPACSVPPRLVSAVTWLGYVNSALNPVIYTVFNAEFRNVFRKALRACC
Chain of Kappa-type opioid receptor (P41145 whole entry): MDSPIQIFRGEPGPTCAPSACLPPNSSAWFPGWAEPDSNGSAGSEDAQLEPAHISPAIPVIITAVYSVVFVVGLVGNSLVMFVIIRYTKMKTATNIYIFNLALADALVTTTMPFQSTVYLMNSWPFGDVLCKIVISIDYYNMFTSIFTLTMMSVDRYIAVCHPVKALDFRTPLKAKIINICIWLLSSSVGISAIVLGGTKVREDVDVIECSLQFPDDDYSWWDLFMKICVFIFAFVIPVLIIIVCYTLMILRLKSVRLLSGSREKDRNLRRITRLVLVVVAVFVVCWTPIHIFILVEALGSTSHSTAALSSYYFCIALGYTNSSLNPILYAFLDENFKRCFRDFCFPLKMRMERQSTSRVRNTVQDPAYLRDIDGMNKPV
Chain of Mu-type opioid receptor (P35372 whole entry): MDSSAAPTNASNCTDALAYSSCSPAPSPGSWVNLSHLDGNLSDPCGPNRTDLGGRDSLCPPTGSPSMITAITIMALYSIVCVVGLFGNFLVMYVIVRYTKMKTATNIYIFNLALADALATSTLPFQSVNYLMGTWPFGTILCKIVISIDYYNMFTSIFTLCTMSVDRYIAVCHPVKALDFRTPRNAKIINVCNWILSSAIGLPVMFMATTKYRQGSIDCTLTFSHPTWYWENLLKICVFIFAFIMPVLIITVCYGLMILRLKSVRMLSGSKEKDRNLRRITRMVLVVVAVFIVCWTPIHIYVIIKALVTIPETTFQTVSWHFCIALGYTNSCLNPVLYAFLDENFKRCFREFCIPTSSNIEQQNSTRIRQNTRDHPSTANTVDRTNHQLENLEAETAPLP
Chain of 5-hydroxytryptamine receptor 6 (P50406 whole entry): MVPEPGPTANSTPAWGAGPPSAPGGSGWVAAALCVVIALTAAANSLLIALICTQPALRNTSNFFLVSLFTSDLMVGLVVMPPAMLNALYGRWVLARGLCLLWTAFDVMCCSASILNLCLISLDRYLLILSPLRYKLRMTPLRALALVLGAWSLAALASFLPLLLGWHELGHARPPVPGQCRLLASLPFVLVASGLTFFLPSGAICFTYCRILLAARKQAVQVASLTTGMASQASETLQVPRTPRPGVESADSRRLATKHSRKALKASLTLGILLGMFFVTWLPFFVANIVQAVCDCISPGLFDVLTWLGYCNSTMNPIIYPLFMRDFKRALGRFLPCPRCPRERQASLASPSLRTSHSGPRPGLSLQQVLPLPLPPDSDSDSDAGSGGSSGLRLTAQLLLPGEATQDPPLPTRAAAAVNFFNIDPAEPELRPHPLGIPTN
Chain of 5-hydroxytryptamine receptor 1B (P28222 whole entry): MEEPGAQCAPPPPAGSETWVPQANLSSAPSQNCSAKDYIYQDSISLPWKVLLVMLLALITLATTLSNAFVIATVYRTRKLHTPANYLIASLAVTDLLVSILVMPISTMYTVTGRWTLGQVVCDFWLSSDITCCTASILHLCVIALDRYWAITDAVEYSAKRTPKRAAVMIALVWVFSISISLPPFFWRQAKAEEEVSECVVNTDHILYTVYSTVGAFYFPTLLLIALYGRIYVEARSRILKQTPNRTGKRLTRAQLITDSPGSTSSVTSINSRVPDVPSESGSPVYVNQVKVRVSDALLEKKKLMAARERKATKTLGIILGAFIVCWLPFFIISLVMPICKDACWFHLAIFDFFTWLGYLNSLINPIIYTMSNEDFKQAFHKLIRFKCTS
Chain of Adenosine receptor A1 (P30542 whole entry): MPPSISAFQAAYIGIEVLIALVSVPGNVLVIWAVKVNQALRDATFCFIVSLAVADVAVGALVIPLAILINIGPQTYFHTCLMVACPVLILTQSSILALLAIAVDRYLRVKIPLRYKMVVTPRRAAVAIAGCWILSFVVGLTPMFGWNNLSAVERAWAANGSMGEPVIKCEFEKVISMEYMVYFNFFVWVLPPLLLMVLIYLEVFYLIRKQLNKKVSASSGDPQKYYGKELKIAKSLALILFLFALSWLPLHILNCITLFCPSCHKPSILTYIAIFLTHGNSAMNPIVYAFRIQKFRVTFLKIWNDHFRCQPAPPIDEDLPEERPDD
Chain of Sodium-dependent dopamine transporter (Homo sapiens) (Q01959 whole entry): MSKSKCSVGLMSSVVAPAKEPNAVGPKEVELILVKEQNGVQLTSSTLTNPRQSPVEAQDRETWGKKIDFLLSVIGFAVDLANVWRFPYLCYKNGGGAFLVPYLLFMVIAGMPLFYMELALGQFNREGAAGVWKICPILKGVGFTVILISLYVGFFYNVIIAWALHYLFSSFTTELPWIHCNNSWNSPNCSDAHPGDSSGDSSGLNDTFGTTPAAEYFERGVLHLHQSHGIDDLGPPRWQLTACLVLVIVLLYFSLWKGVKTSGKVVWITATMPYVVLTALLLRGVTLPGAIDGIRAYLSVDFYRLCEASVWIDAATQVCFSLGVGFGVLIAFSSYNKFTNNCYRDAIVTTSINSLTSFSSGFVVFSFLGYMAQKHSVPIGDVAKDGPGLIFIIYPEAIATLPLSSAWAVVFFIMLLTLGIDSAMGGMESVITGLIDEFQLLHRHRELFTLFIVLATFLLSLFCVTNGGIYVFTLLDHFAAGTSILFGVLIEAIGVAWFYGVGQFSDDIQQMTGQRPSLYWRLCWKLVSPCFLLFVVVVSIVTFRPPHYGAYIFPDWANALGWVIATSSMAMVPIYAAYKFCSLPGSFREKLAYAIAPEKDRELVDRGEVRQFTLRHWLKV
Chain of 5-hydroxytryptamine receptor 5A (P47898 whole entry): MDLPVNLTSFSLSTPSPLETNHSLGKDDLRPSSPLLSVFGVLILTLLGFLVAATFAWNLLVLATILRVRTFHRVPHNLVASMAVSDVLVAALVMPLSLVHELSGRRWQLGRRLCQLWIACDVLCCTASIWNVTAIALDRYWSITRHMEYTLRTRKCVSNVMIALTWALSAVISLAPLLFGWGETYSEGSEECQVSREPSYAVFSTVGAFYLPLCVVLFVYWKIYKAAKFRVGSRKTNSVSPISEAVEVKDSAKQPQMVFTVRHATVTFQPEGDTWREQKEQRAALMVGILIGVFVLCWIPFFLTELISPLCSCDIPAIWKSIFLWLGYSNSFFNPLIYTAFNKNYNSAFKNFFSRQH
Chain of 5-hydroxytryptamine receptor 2C (P28335 whole entry): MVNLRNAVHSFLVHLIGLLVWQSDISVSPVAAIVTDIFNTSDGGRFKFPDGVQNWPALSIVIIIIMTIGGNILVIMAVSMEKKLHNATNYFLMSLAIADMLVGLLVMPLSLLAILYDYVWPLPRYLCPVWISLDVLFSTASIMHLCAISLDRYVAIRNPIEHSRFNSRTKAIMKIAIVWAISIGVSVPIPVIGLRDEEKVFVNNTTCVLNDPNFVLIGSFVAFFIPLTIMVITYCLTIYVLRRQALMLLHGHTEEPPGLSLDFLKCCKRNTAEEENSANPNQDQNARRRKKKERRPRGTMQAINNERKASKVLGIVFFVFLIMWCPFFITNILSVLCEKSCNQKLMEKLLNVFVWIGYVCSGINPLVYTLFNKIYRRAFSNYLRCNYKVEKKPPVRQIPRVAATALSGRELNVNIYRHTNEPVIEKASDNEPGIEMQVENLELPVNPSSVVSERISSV

COc1cc2c(cn1)C1NCCC1CC2 (stereo not given)
Ki [1]: Not Active | Activity (Mus musculus [2]): Active

CN1CCC[C@H]1c1cccnc1 [NICOTINE]
ED50 (Mus musculus [3]): 1.5 mg/kg | ED50 (Mus musculus [4]): 12 µg/mouse | ED50 (Mus musculus [5]): 0.5 mg/kg

NC1CCCc2ccncc21 (stereo not given)
MPE (Mus musculus [6]): 1% | pKi [7]: < 5.00 | MPE (Mus musculus [8]): 10%

CCN(C)C1CCCc2ccncc21.O=C(O)/C=C\C(=O)O.O=C(O)/C=C\C(=O)O (stereo not given)
Ki [9]: > 10 µM | pKi [10]: < 5.00 | pKi [11]: < 5.00 | pKi (Mu-type opioid receptor): < 5.00 | pKi [12]: < 5.00 | Activity [13]: inactive | ED50 (Mus musculus [3]): 0.6 mg/kg | pKi [14]: < 5.00 | pKi [15]: < 5.00 | ED50 (Mus musculus [4]): 12 µg/mouse | pKi (D(1B) dopamine receptor): < 5.00 | pKi (D(3) dopamine receptor): < 5.00 | pKi (Histamine H2 receptor): < 5.00 | pKi (Histamine H1 receptor): < 5.00 | pKi [16]: < 5.00 | pKi [17]: < 5.00 | pKi (D(1A) dopamine receptor): < 5.00 | Activity [18]: inactive | Ki [19]: > 10 µM | pKi [20]: < 5.00 | pKi [21]: < 5.00 | pKi [22]: < 5.00 | Ki (Adenosine A2 receptor): > 10 µM | pKi [23]: < 5.00 | pKi [7]: 6.03 | Activity [24]: inactive | pKi (D(2) dopamine receptor): < 5.00 | pKi (Translocator protein): < 5.00 | ED50 (Mus musculus [5]): 0.2 mg/kg | Activity [25]: inactive | Activity [26]: Not Active | pKi (Adenosine receptor A1): < 5.00 | pKi [27]: < 5.00 | pKi [28]: < 5.00 | Activity [29]: inactive | pKi (D(4) dopamine receptor): < 5.00 | pKi [30]: < 5.00 | pKi [31]: < 5.00 | pKi [32]: < 5.00 | pKi (Adenosine receptor A3): < 5.00 | pKi [33]: < 5.00

CN(C)C1CCCc2ccncc21 (stereo not given)
MPE (Mus musculus [34]): 8% | MPE (Mus musculus [6]): 2% | pKi [7]: 6.48 | ED50 (Mus musculus [5]): 3.9 mg/kg

CNC1CCCc2ccncc21 (stereo not given)
ED50 (Mus musculus [4]): 13 µg/mouse | MPE (Mus musculus [6]): 0% | pKi [7]: < 5.00 | MPE (Mus musculus [8]): 2%

c1cc2c(cn1)C(N1CCCC1)CCC2 (stereo not given)
MPE (Mus musculus [34]): 6% | MPE (Mus musculus [6]): 2% | pKi [7]: < 5.00 | MPE (Mus musculus [8]): 11%

CCCNC1CCCc2ccncc21 (stereo not given)
pKi [7]: < 5.00

CCCN(C)C1CCCc2ccncc21 (stereo not given)
pKi [7]: < 5.00

CN1CCC2CCc3ccncc3C21 (stereo not given)
Ki [1]: Not Active | Activity (Mus musculus [2]): Active
